From ChEMBL document CHEMBL5338723, “Emerging Target-Directed Approaches for the Treatment and Diagnosis of Microbial Infections” (J Med Chem, 2023)
≈ marks a conversion by molar mass, not a printed value. *1 amine or outer side, *2 acyl side, *3 side chain or, on linkers, in order; H or OH if unused. Where a SMILES comes first, the peptide text is derived from it. Side-chain parts run from the residue outwards. [ ]: non-standard residue; d: D form. The star is where a group is joined. X1 = Cn1c(=N)ccn([C@@H]2S[C@H]([C@@H](O)[C@@H](N[*:1])C(=O)[*:2])[C@H](O)[C@H]2O)c1=O; DAMPA = CN(Cc1cnc2nc(N)nc(N)c2n1)c1ccc(C(=O)*)cc1; Orn(N5-OH,N5-Ac) = CC(=O)N(O)CCC[C@H](N)C(=O)O; γGlu = O=C(O)[C@H](CCC(=O)[*:2])N[*:1]; Ethylenediamine = C(CN[*:2])N[*:1]

Experiments:
Escherichia coli [1] = assay: Antimicrobial activity against Escherichia coli B assessed as microbial growth inhibition; assay type: functional
Escherichia coli [2] = assay: Antimicrobial activity against exbB/exbD negative Escherichia coli W3110-6 assessed as microbial growth inhibition; assay type: functional
Escherichia coli [3] = assay: Antimicrobial activity against Escherichia coli W3110 assessed as microbial growth inhibition; assay type: functional
Klebsiella pneumoniae = assay: Antibacterial activity against Klebsiella pneumoniae assessed as microbial growth inhibition; assay type: functional
Escherichia coli [4] = assay: Antimicrobial activity against pTon positive Escherichia coli W3110-KP1344 harboring pMS7 assessed as microbial growth inhibition; assay type: functional
Escherichia coli [5] = assay: Antimicrobial activity against aroB/cir/fiu negative Escherichia coli H1728 assessed as microbial growth inhibition; assay type: functional
Escherichia coli [6] = assay: Antimicrobial activity against Escherichia coli C600 harboring pHX405 plasmid assessed as microbial growth inhibition; assay type: functional
Escherichia coli [7] = assay: Antimicrobial activity against aroB/fepA/cir negative Escherichia coli H1875 assessed as microbial growth inhibition; assay type: functional
Escherichia coli [8] = assay: Antimicrobial activity against aroB/fepA/fiu negative Escherichia coli H1877 assessed as microbial growth inhibition; assay type: functional
Escherichia coli [9] = assay: Antimicrobial activity against Escherichia coli F assessed as microbial growth inhibition; assay type: functional
Escherichia coli [10] = assay: Antimicrobial activity against fhuA negative Escherichia coli C600 assessed as microbial growth inhibition; assay type: functional
Escherichia coli [11] = assay: Antimicrobial activity against aroB/fepA negative Escherichia coli H873 assessed as microbial growth inhibition; assay type: functional
Escherichia coli [12] = assay: Antimicrobial activity against Escherichia coli ML35p assessed as microbial growth inhibition; assay type: functional
Enterobacter cloacae = assay: Antibacterial activity against Enterobacter cloacae; assay type: functional
Salmonella enteritidis = assay: Antimicrobial activity against Salmonella enterica subsp. enterica serovar Enteritidis assessed as increase in microbial growth inhibition; assay type: functional
Escherichia coli [13] = assay: Antimicrobial activity against aroB/fiu negative Escherichia coli H1594 assessed as microbial growth inhibition; assay type: functional
Escherichia coli [14] = assay: Antimicrobial activity against aroB negative Escherichia coli H1443 assessed as microbial growth inhibition; assay type: functional
Escherichia coli [15] = assay: Antimicrobial activity against Escherichia coli MC4100 assessed as microbial growth inhibition; assay type: functional
Escherichia coli [16] = assay: Antimicrobial activity against aroB/cir negative Escherichia coli H2222 assessed as microbial growth inhibition; assay type: functional
Streptococcus pneumoniae = assay: Antimicrobial activity against Streptococcus pneumoniae assessed as microbial growth inhibition; assay type: functional
Yersinia enterocolitica = assay: Antimicrobial activity against Yersinia enterocolitica assessed as microbial growth inhibition; assay type: functional
[17] = Cytotoxicity against human L02 assessed as lethal dose; assay type: toxicity, cell-based; conditions: L02 cells, read-out: LD50 (the source's name)
[18] = Potency index, ratio of test compound LD50 to methotrexate LD50 for cytotoxicity against human L02 cells; assay type: toxicity, cell-based

Question: Which MIC (Escherichia coli [1]) does the source give for `CC(=O)N(O)CCC[C@H](NC(=O)[C@H](CCCN(O)C(C)=O)NC(=O)[C@@H](N)CCCN(O)C(C)=O)C(=O)N[C@@H](CO)C(=O)N[C@@H](C(=O)O)[C@H](O)[C@H]1S[C@@H](n2ccc(=N)n(C)c2=O)[C@H](O)[C@H]1O` (H-[Orn(N5-OH,N5-Ac)][Orn(N5-OH,N5-Ac)][Orn(N5-OH,N5-Ac)]S[X1]-OH) here?
Answer: 0.04 µM (≈ 0.038 µg/mL)

Question: And the MIC (Escherichia coli [2])?
Answer: 0.04 µM (≈ 0.038 µg/mL)

Question: And the MIC (Escherichia coli [3])?
Answer: 0.04 µM (≈ 0.038 µg/mL)

Question: And the MIC (Klebsiella pneumoniae)?
Answer: 0.04 µM (≈ 0.038 µg/mL)

Question: And the MIC (Escherichia coli [4])?
Answer: 0.04 µM (≈ 0.038 µg/mL)

Question: And the MIC (Escherichia coli [5])?
Answer: 0.04 µM (≈ 0.038 µg/mL)

Question: What about the MIC (Escherichia coli [6]) of the same molecule?
Answer: 0.04 µM (≈ 0.038 µg/mL)

Question: And the MIC (Escherichia coli [7])?
Answer: 0.04 µM (≈ 0.038 µg/mL)

Question: What about the MIC (Escherichia coli [8]) of the same molecule?
Answer: 0.04 µM (≈ 0.038 µg/mL)

Question: And the MIC (Escherichia coli [9])?
Answer: 0.04 µM (≈ 0.038 µg/mL)

Question: What about the MIC (Escherichia coli [10]) of the same molecule?
Answer: 0.04 µM (≈ 0.038 µg/mL)

Question: And the MIC (Escherichia coli [11])?
Answer: 0.04 µM (≈ 0.038 µg/mL)

Question: And the MIC (Escherichia coli [12])?
Answer: 0.04 µM (≈ 0.038 µg/mL)

Question: What about the MIC (Enterobacter cloacae) of the same molecule?
Answer: 0.04 µM (≈ 0.038 µg/mL)

Question: And the MIC (Salmonella enteritidis)?
Answer: 0.04 µM

Question: And the MIC (Escherichia coli [13])?
Answer: 0.04 µM (≈ 0.038 µg/mL)

Question: What about the MIC (Escherichia coli [14]) of the same molecule?
Answer: 0.04 µM (≈ 0.038 µg/mL)

Question: And the MIC (Escherichia coli [15])?
Answer: 0.04 µM (≈ 0.038 µg/mL)

Question: What about the MIC (Escherichia coli [16]) of the same molecule?
Answer: 0.04 µM (≈ 0.038 µg/mL)

Question: With `CC(=O)N(O)CCC[C@H](NC(=O)[C@H](CCCN(O)C(C)=O)NC(=O)[C@@H](N)CCCN(O)C(C)=O)C(=O)N[C@@H](CCC(=O)NCCNC(=O)CC[C@H](NC(=O)c1ccc(N(C)Cc2cnc3nc(N)nc(N)c3n2)cc1)C(=O)O)C(=O)O` (H-[Orn(N5-OH,N5-Ac)][Orn(N5-OH,N5-Ac)][Orn(N5-OH,N5-Ac)]E([Ethylenediamine-γGlu-DAMPA])-OH) as the molecule, how does the MIC (Streptococcus pneumoniae) read?
Answer: 0.00172 µM (≈ 0.00196 µg/mL)

Question: And the MIC (Yersinia enterocolitica)?
Answer: 0.00684 µM (≈ 0.00781 µg/mL)

Question: And the CC50 [17]?
Answer: 18.5 µM

Question: And the selectivity ratio [18]?
Answer: 2310
